# Measurements as given in US9980943B2, “Methods of treating muscular dystrophy” (BOARD OF REGENTS OF THE NEVADA SYSTEM OF HIGHER EDUCATION, …, priority 2013, dated 2018).
# Experiments:
# Type in all cases: cell-based, mouse
# [1] = test system: α7 integrin (LacZ reporter in α7βgal+/− myoblasts); experiment: Myoblast α7+/LacZ integrin FDG assay (Burkin assay in myoblasts, 96-well); details: α7+/LacZ myoblasts, 96-well
# [2] = test system: α7 integrin (LacZ reporter in α7+/LacZ myotubes); experiment: Myotube α7 integrin FDG assay (Burkin assay in myotubes, 96-well); details: myotubes
# [3] = test system: β-galactosidase in CMV-LacZ C2C12 myoblasts; experiment: CMV-LacZ secondary screen in C2C12 myoblasts (β-Gal stabilizing assay); details: CMV-LacZ C2C12 myoblasts
# From the text: In order to determine compounds that acted to stabilize β-gal in myogenic cells, a CMV-LacZ C2C12 cell line was used in a secondary screen. The EGFP gene from the pEGFP (Clontech) vector was replaced by LACZ PCR product with digests of the vector/PCR product performed using EcoRI (NEB) and NotI (NEB) and ligated using T4 DNA Ligase (NEB) following standard procedures to produce the CMV-LACZ vector. The LACZ gene was generated by PCR from the pBK-RSV (Stratagene) vector using primers LACZ EcoRI F- and LACZ NotI R-. The CMV-LACZ vector was then digested with AfIII (NEB) to linearize the construct, which was then transfected in C2C12 myoblasts using Lipofectamine 2000 (Invitrogen) following the manufacturer's instructions. […] Clonal lines were selected and screened for βgal levels using the myoblast FDG assay.
# The assays were used the original 96-well format and new dose-response curves for myoblasts (N=3-6 replicates for each data point), myotubes (N=3-6 replicates for data point), and CMV-LacZ secondary assay (N=2 replicates for each data point) using concentrations of 0.5 μM, 1 μM, 5 μM, 10 μM, 20 μM, and 40 μM (Tables 9-16).
# [4] = test system: β-galactosidase in CMV-LacZ C2C12 myotubes; experiment: CMV-LacZ secondary screen in C2C12 myotubes (β-Gal stabilizing assay); details: C2C12 CMV-LacZ myotubes, fold relative to DMSO
# Procedure, shortened: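 A secondary screen identifies compounds that stabilize β-gal independently of the native promoter, using CMV-LacZ C2C12 cells. Curves span 0.5–40 μM at six levels, in duplicate.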
SMILES,"Burkin Assay in Myoblasts, signal relative to DMSO ([1]; 0.5 uM)","Burkin Assay in Myoblasts, signal relative to DMSO ([1]; 1 uM)","Burkin Assay in Myoblasts, signal relative to DMSO ([1]; 5 uM)","Burkin Assay in Myoblasts, signal relative to DMSO ([1]; 10 uM)","Burkin Assay in Myoblasts, signal relative to DMSO ([1]; 20 uM)","Burkin Assay in Myoblasts, signal relative to DMSO ([1]; 40 uM)","Burkin Assay in Myotubes, α7 integrin LacZ reporter signal relative to DMSO ([2]; 0.5 uM)","Burkin Assay in Myotubes, α7 integrin LacZ reporter signal relative to DMSO ([2]; 1 uM)","Burkin Assay in Myotubes, α7 integrin LacZ reporter signal relative to DMSO ([2]; 5 uM)","Burkin Assay in Myotubes, α7 integrin LacZ reporter signal relative to DMSO ([2]; 10 uM)","Burkin Assay in Myotubes, α7 integrin LacZ reporter signal relative to DMSO ([2]; 20 uM)","Burkin Assay in Myotubes, α7 integrin LacZ reporter signal relative to DMSO ([2]; 40 uM)",CMV-LACZ in Myoblasts (β-galactosidase activity relative to DMSO) ([3]; 0.5 uM),CMV-LACZ in Myoblasts (β-galactosidase activity relative to DMSO) ([3]; 1 uM),CMV-LACZ in Myoblasts (β-galactosidase activity relative to DMSO) ([3]; 5 uM),CMV-LACZ in Myoblasts (β-galactosidase activity relative to DMSO) ([3]; 10 uM),CMV-LACZ in Myoblasts (β-galactosidase activity relative to DMSO) ([3]; 20 uM),CMV-LACZ in Myoblasts (β-galactosidase activity relative to DMSO) ([3]; 40 uM),"CMV-LACZ in Myotubes, signal relative to DMSO ([4]; 0.5 uM)","CMV-LACZ in Myotubes, signal relative to DMSO ([4]; 1 uM)",also measured
N#Cc1nc(COc2ccccc2)oc1N1CCCC1 [MLS000036988-01],1.189,1.0825,0.8657,0.8256,0.9023,0.6581,0.8553,0.7577,0.8099,0.8223,0.4172,0.104,1.0767,1.0846,0.9702,1.0435,0.8796,0.6578,0.9867,0.8905,"CMV-LACZ in Myotubes, signal relative to DMSO ([4]; 5 uM): 0.8979; CMV-LACZ in Myotubes, signal relative to DMSO ([4]; 10 uM): 1.0868; CMV-LACZ in Myotubes, signal relative to DMSO ([4]; 20 uM): 0.7116; CMV-LACZ in Myotubes, signal relative to DMSO ([4]; 40 uM): 0.5021"
CCOC(=O)c1nnn(-c2nonc2OC)c1-c1ccccc1 [MLS000045588-01],1.016,1.107,1.075,0.917,1.003,0.8919,1.077,1.099,1.135,1.036,1.063,0.9546,0.7647,0.8372,1.0245,1.0611,0.8056,1.2167,0.9059,0.8607,"CMV-LACZ in Myotubes, signal relative to DMSO ([4]; 5 uM): 1.2294; CMV-LACZ in Myotubes, signal relative to DMSO ([4]; 10 uM): 0.9776; CMV-LACZ in Myotubes, signal relative to DMSO ([4]; 20 uM): 1.0494; CMV-LACZ in Myotubes, signal relative to DMSO ([4]; 40 uM): 0.9424"
O=C(O)CC1(c2ccccc2)C(=O)c2ccccc2C1=O [MLS000052969-01],1.25,1.352,0.9646,0.8356,0.8292,0.7591,0.9131,1.058,0.9184,0.876,0.6621,0.5548,0.8950,1.0529,0.9976,1.0444,1.1522,0.6800,0.9152,1.1714,"CMV-LACZ in Myotubes, signal relative to DMSO ([4]; 5 uM): 1.0651; CMV-LACZ in Myotubes, signal relative to DMSO ([4]; 10 uM): 0.8406; CMV-LACZ in Myotubes, signal relative to DMSO ([4]; 20 uM): 0.9800; CMV-LACZ in Myotubes, signal relative to DMSO ([4]; 40 uM): 0.9726"
CCC(=O)c1ccc(OCC(O)CN2CC(C)OC(C)C2)cc1.O=C(O)C(=O)O (stereo not drawn) [MLS000053342-01],1.222,1.088,0.9766,0.8668,1.0354,1.022,1.059,1.011,1.002,1.03,1.049,1.11,1.0289,1.0397,1.0865,0.8785,0.9811,0.9930,0.9947,0.9863,"CMV-LACZ in Myotubes, signal relative to DMSO ([4]; 5 uM): 0.9033; CMV-LACZ in Myotubes, signal relative to DMSO ([4]; 10 uM): 0.9187; CMV-LACZ in Myotubes, signal relative to DMSO ([4]; 20 uM): 1.3044; CMV-LACZ in Myotubes, signal relative to DMSO ([4]; 40 uM): 1.1344"
CC(C)Oc1cccc(C(=O)Nc2ccc(CN3CCOCC3)cc2)c1 [MLS000062431-01],0.9542,0.9582,1.016,1.209,1.789,0.9038,0.9571,0.8415,1.178,1.1989,0.7643,0.8841,0.9557,1.1631,0.9848,1.1632,1.0467,1.0993,0.9133,0.9743,"CMV-LACZ in Myotubes, signal relative to DMSO ([4]; 5 uM): 0.9004; CMV-LACZ in Myotubes, signal relative to DMSO ([4]; 10 uM): 0.9690; CMV-LACZ in Myotubes, signal relative to DMSO ([4]; 20 uM): 0.8812; CMV-LACZ in Myotubes, signal relative to DMSO ([4]; 40 uM): 1.2047"
COc1ccc(C(=O)Cn2nnc(-c3ccccc3NC(=O)c3ccco3)n2)cc1 [MLS000072290-01],1.405,1.196,0.7334,0.6517,0.3984,0.2238,1.109,1.121,0.9096,0.8405,0.475,0.1784,1.0579,0.9000,1.4390,1.3303,0.3911,0.2915,0.9362,1.1495,"CMV-LACZ in Myotubes, signal relative to DMSO ([4]; 5 uM): 1.3265; CMV-LACZ in Myotubes, signal relative to DMSO ([4]; 10 uM): 1.1459; CMV-LACZ in Myotubes, signal relative to DMSO ([4]; 20 uM): 1.3484; CMV-LACZ in Myotubes, signal relative to DMSO ([4]; 40 uM): 1.0653"
